From patent US20260284005A1, “INHIBITING MITOGEN-ACTIVATED PROTEIN (MAP)/ERK KINASE (MEK)1 AND MEK2 AND RELATED METHODS OF TREATMENT” (priority 2023, published 2026)
Like-named read-outs stand apart in the source and are kept apart here.

How the values were obtained:
[1] = system: NCI-H2087 cells; assay: 3D-TGA; format: cell-based; settings: Homo sapiens, NCI-H2087, LUN, NRAS Q61K, ALK S553A
Experimental: (§1) Cells were seeded in 3D cultures in a black-walled, clear-bottom, non-tissue culture treated, 384-well plate (3000 cells per well) using a 1:1 mixture of BME and a custom media and grown in a humidified incubator with 5% CO2 and 5% O2, which approximates capillary levels for each gas, at 37° C. […] Cells were assessed for cell proliferation using EdU cell proliferation staining. […] Cells were permeabilized with 30 μL of filtered 0.5% Triton X-100 in PBS for 20 minutes at room temperature. Samples were washed twice gently with PBS. Cells were stained utilizing click-iT chemistry by adding 20 μL of staining cocktail containing 2 mM copper sulfate, 8 μM sulfo-Cy5-azide, and 20 mg/ml ascorbic acid in PBS and incubated 30-60 minutes at room temperature in dark. […] Plates were imaged with the Molecular Devices Pico ImageXpress. Images were segmented and percentage of cells with EdU incorporation was quantified to calculate antiproliferative effects of the drugs.
(§2) Five (5)-ethynyl-2′-deoxyuridine (EdU) data was represented as percentage EdU positive cells quantified by high content imaging from the Molecular Devices ImageXpress® Pico.

[2] = system: CORL23 cells; assay: 3D-TGA; format: cell-based; settings: Homo sapiens, COR-L23, CORL23, LUN, KRAS G12V, ALK R317T
Experimental: as §1, §2

[3] = system: SW900 cells; assay: 3D-TGA; format: cell-based; settings: Homo sapiens, SW900, LUN, KRAS G12V, ALK G103R
Experimental: as §1, §2

[4] = system: CFPAC-1 cells; assay: 3D-TGA; format: cell-based, human; settings: CFPAC-1, PAN, KRAS G12V, read-out: IC50 in 3D-TGA, agent alone
Experimental: as §1, §2

[5] = system: Panc 10.05 cells; assay: 3D-TGA; format: cell-based, human; settings: Panc 10.05, PAN, KRAS G12D, read-out: IC50 in 3D-TGA, agent alone
Experimental: as §1, §2

[6] = system: Capan-1 cells; assay: 3D-TGA; format: cell-based, human; settings: Capan-1, PAN, KRAS G12V, read-out: IC50 in 3D-TGA, agent alone
Experimental: as §1, §2

[7] = system: Capan-2 cells; assay: 3D-TGA; format: cell-based, human; settings: Capan-2, PAN, KRAS G12V, read-out: IC50 in 3D-TGA, agent alone
Experimental: as §1, §2

[8] = system: PANC-1 cells; assay: 3D-TGA; format: cell-based, human; settings: PANC-1, PAN, KRAS G12D, read-out: IC50 in 3D-TGA, agent alone
Experimental: as §1, §2

[9] = system: HPAC cells; assay: 3D-TGA; format: cell-based, human; settings: PAN, KRAS G12D, read-out: IC50 in 3D-TGA, agent alone
Experimental: as §1, §2

[10] = system: AsPC-1 cells; assay: 3D-TGA; format: cell-based, human; settings: Homo sapiens, ASPC1; AsPC-1, PAN, KRAS G12D; read-out: IC50 in 3D-TGA, agent alone
Experimental: as §1, §2

[11] = system: PSN-1 cells; assay: 3D-TGA; format: cell-based, human; settings: PSN-1, PAN, KRAS G12R, read-out: IC50 in 3D-TGA, agent alone
Experimental: as §1, §2

[12] = system: HPAF-II cells; assay: 3D-TGA; format: cell-based, human; settings: PAN, KRAS G12D, read-out: IC50 in 3D-TGA, agent alone
Experimental: as §1, §2

[13] = system: MIA PaCa-2 cells; assay: 3D-TGA; format: cell-based, human; settings: KRAS G12C
[14] = system: PA-TU-8988S cells; assay: 3D-TGA; format: cell-based; settings: Homo sapiens, PaTu 8988s, PAN, KRAS G12V, read-out: IC50 in 3D-TGA, agent alone
Experimental: as §1, §2

[15] = system: Panc 03.27 cells; assay: 3D-TGA; format: cell-based; settings: Homo sapiens, PANC-03-27; Panc 03.27, PAN, KRAS G12V; read-out: IC50 in 3D-TGA, agent alone
Experimental: as §1, §2

[16] = system: SW626 cells; assay: 3D-TGA; format: cell-based, human
Experimental: as §1, §2

[17] = system: RCM-1 cells; assay: 3D-TGA; format: cell-based, human
Experimental: as §1, §2

[18] = system: LS1034 cells; assay: 3D-TGA; format: cell-based, human; settings: LS1034, COL, KRAS A146T, read-out: IC50 in 3D-TGA, agent alone
Experimental: as §1, §2

[19] = system: HT-29 cells; assay: 3D-TGA; format: cell-based, human
Experimental: as §1, §2

[20] = system: CL-40 cells; assay: 3D-TGA; format: cell-based, human; settings: read-out: IC50 in 3D-TGA, agent alone
Experimental: as §1, §2

[21] = system: SNU-1197 cells; assay: 3D-TGA; format: cell-based, human; settings: read-out: IC50 in 3D-TGA, agent alone
Experimental: as §1, §2

[22] = system: pancreatic cancer; settings: Phase III MPACT, 1st Line; cited from earlier work
[23] = system: NCI-H1792 cells; assay: 3D-TGA; format: cell-based, human; settings: Homo sapiens, read-out: IC50 in 3D-TGA Osimertinib; NCI-H1792, LUN, KRAS G12C; agent alone
[24] = system: NCI-H1650 cells; assay: 3D-TGA; format: cell-based; settings: Homo sapiens, NCI-H1650, read-out: IC50 in 3D-TGA Osimertinib
[25] = system: NCI-H820 cells; assay: 3D-TGA; format: cell-based; settings: Homo sapiens, read-out: IC50 in 3D-TGA Osimertinib; NCI-H820, LUN, EGFR T790M; agent alone
[26] = system: NCI-H358 cells; assay: 3D-TGA; format: cell-based, human; settings: NCI-H358, LUN, KRAS G12C
[27] = system: NCI-H2172 cells; assay: 3D-TGA; format: cell-based; settings: Homo sapiens, read-out: IC50 in 3D-TGA Osimertinib; NCI-H2172, LUN, EGFR L858R; agent alone
[28] = system: NCI-H508 cells; assay: 3D-TGA; format: cell-based; settings: Homo sapiens, read-out: IC50 in 3D-TGA Osimertinib; NCI-H508, COL, BRAF G596R; agent alone
[29] = system: LS411N cells; assay: 3D-TGA; format: cell-based; settings: Homo sapiens, LS-411N, read-out: IC50 in 3D-TGA Osimertinib; LS411N, COL, BRAF V600E; agent alone
[30] = system: NCI-H1975 cells; assay: 3D-TGA; format: cell-based; settings: Homo sapiens, read-out: IC50 in 3D-TGA Osimertinib; NCI-H1975, LUN, EGFR L858R; agent alone
[31] = system: SK-CO-1 cells; assay: 3D-TGA; format: cell-based; settings: Homo sapiens, read-out: IC50 in 3D-TGA Osimertinib; SK-CO-1, COL, KRAS G12V; agent alone
[32] = system: HCC827 cells; assay: cells; format: cell-based; settings: Homo sapiens, HCC827, read-out: IC50 in 3D-TGA Osimertinib
[33] = system: A549 cells; assay: 3D-TGA; format: cell-based, human; settings: A549, LUN, KRAS G12S; read-out: IC50 in 3D-TGA, agent alone
Experimental: as §1, §2

[34] = system: Calu-6 cells; assay: 3D-TGA; format: cell-based, human; settings: Calu-6, LUN, KRAS Q61K; read-out: IC50 in 3D-TGA, agent alone
Experimental: as §1, §2

[35] = system: PA-TU-8988T cells; assay: 3D-TGA; format: cell-based, human; settings: PAN, KRAS G12V, read-out: IC50 in 3D-TGA, agent alone
Experimental: as §1, §2

[36] = read-out: IC50 in 3D-TGA Alectinib
[37] = agent alone, read-out: IC50 in 3D-TGA Crizotinib
[38] = SW626, COL, KRAS G12V, read-out: IC50 in 3D-TGA, agent alone
[39] = RCM-1, COL, KRAS G12V, read-out: IC50 in 3D-TGA, agent alone
[40] = HT-29, COL, BRAF V600E, read-out: IC50 in 3D-TGA, agent alone
[41] = MIA-PaCa2, PAN, read-out: IC50 in 3D-TGA, agent alone

For `CCc1cc2c(cc1N1CCC(N3CCOCC3)CC1)C(C)(C)c1[nH]c3cc(C#N)ccc3c1C2=O` [Alectinib, alectinib], the IC50 [1, 36] was 1000 nM, the IC50 [2, 36] was 1000 nM and the IC50 [3, 36] was 1000 nM.

With `O=c1[nH]cc(F)c(=O)[nH]1` [Compound 5-FU, 5-fluorouracil] the IC50 ([4]; Homo sapiens) was 1000 nM, the IC50 ([5]; Homo sapiens, Panc1005) was 1000 nM and the IC50 ([6]; Homo sapiens) was 1000 nM. For the same compound, the IC50 ([7]; Homo sapiens) was 1000 nM, the IC50 ([8]; Homo sapiens) was 1000 nM and the IC50 ([9]; Homo sapiens) was 1000 nM. It also gave an IC50 [10] of 1000 nM, an IC50 ([11]; Homo sapiens, PSN1) of 1000 nM and an IC50 ([12]; Homo sapiens) of 1000 nM. For the same compound, the IC50 ([13]; Homo sapiens, MIA PaCa-2, MIA-PaCa2, PAN, read-out: IC50 in 3D-TGA, agent alone) was 1000 nM, the IC50 [14] was 1000 nM and the IC50 [15] was 1000 nM.

`C[C@@H](Oc1cc(-c2cnn(C3CCNCC3)c2)cnc1N)c1c(Cl)ccc(F)c1Cl` [Crizotinib, crizotinib] gave an IC50 [1, 37] of 1000 nM, an IC50 [2, 37] of 1000 nM and an IC50 [3, 37] of 1000 nM.

`Nc1ccn([C@@H]2O[C@H](CO)[C@@H](O)C2(F)F)c(=O)n1` [Gemcitabine, gemcitabine] showed an IC50 ([16]; Homo sapiens, SW626, read-out: IC50 in 3D-TGA, agent alone) of 100 to 500 nM, an IC50 ([17]; Homo sapiens, RCM-1, read-out: IC50 in 3D-TGA, agent alone) of 500 to 1000 nM and an IC50 ([18]; Homo sapiens, LS-1034) of 500 to 1000 nM. The IC50 ([19]; Homo sapiens, HT-29, read-out: IC50 in 3D-TGA, agent alone) was < 50 nM, the IC50 ([20]; Homo sapiens) was < 50 nM and the IC50 ([21]; Homo sapiens) was 100 to 500 nM. The ORR [22] was 7%.

`C=CC(=O)Nc1cc(Nc2nccc(-c3cn(C)c4ccccc34)n2)c(OC)cc1N(C)CCN(C)C` [Osimertinib, osimertinib] showed an IC50 [23] of 1000 nM, an IC50 [24] of 1000 nM and an IC50 ([13]; Homo sapiens, read-out: IC50 in 3D-TGA Osimertinib, MIA PACA-2, PAN, agent alone) of 1000 nM. It also gave an IC50 [25] of 1000 nM, an IC50 ([26]; Homo sapiens, read-out: IC50 in 3D-TGA Osimertinib, agent alone) of 1000 nM and an IC50 [27] of 1000 nM. It also gave an IC50 [28] of 1000 nM, an IC50 [29] of 1000 nM and an IC50 [30] of […]. For the same compound, the IC50 [31] was 1000 nM and the IC50 [32] was 50 nM.

In the case of `O=C1[O][Pt]2([NH][C@@H]3CCCC[C@H]3[NH]2)[O]C1=O` [Oxaliplatin, oxaliplatin], the IC50 [4] is reported as 1000 nM, the IC50 [5] is reported as 1000 nM and the IC50 [6] is reported as 100 to 500 nM. The IC50 [33] was 1000 nM, the IC50 [16, 38] was 1000 nM and the IC50 [7] was 1000 nM. For the same compound, the IC50 [8] was 1000 nM, the IC50 [17, 39] was 500 to 1000 nM and the IC50 [9] was 1000 nM. It also gave an IC50 [18] of 1000 nM, an IC50 [11] of 1000 nM and an IC50 [19, 40] of 1000 nM. It also gave an IC50 ([20]; CL-40, COL, KRAS G12D) of 100 to 500 nM, an IC50 [12] of 1000 nM and an IC50 ([21]; SNU-1197, COL, KRAS G12D) of 1000 nM. It also gave an IC50 [34] of 1000 nM, an IC50 [35] of 1000 nM and an IC50 [13, 41] of 1000 nM. It also gave an IC50 ([26]; read-out: IC50 in 3D-TGA, agent alone) of 1000 nM.

For `CCc1c2c(nc3ccc(O)cc13)-c1cc3c(c(=O)n1C2)COC(=O)[C@]3(O)CC` [SN-38], the IC50 [4] was < 50 nM, the IC50 [5] was < 50 nM and the IC50 [6] was < 50 nM. The IC50 [16, 38] was < 50 nM, the IC50 [7] was < 50 nM and the IC50 [8] was < 50 nM. For the same compound, the IC50 [17, 39] was < 50 nM, the IC50 [9] was < 50 nM and the IC50 [18] was < 50 nM. For the same compound, the IC50 [19, 40] was < 50 nM, the IC50 ([20]; CL-40, COL, KRAS G12D) was < 50 nM and the IC50 [12] was < 50 nM. For the same compound, the IC50 ([21]; SNU-1197, COL, KRAS G12D) was < 50 nM, the IC50 [35] was < 50 nM and the IC50 [13, 41] was < 50 nM.
